The target in experiment [1] is Phosphatidylinositol 4,5-bisphosphate 3-kinase catalytic subunit alpha isoform (Homo sapiens, UniProt P42336). The experiment is described as follows: Inhibition of recombinant human full length His-tagged PI3Kalpha expressed in baculovirus expression system using PIP2 as substrate by ADP-Glo reagent based assay.
Experiment [2] deals with HGC-27. In words: Antiproliferative activity against human HGC-27 cells assessed as reduction in cell viability incubated for 72 hrs measured after 4 hrs of MTT addition by MTT assay. Format: functional, cell-based. A general note: Tetrazolium assays rely on reduction of a dye to a coloured formazan, in cell work by metabolically active cells.
Experiment [3] deals with HGC-27. In words: Induction of apoptosis in human HGC-27 cells assessed as viable cells at 500 nM incubated for 24 hrs by annexin V-FITC and propidium iodide based staining based flow cytometry analysis (reference value: 83.7 %). In kind it is functional. The following applies: read-out: Activity. In general terms: A flow cytometer gives signals particle by particle.
The subject of experiment [4] is HGC-27. The experiment is described as follows: Induction of apoptosis in human HGC-27 cells assessed as early apoptotic cells at 500 nM incubated for 24 hrs by annexin V-FITC and propidium iodide based staining based flow cytometry analysis (reference value: 6.22 %). In kind it is functional.
The subject of experiment [5] is HGC-27. In words: Induction of apoptosis in human HGC-27 cells assessed as late apoptotic cells at 500 nM incubated for 24 hrs by annexin V-FITC and propidium iodide based staining based flow cytometry analysis (reference value: 8.15 %). Format: functional.
Experiment [6] concerns HGC-27. The experiment is described as follows: Induction of apoptosis in human HGC-27 cells assessed as necrotic cells at 500 nM incubated for 24 hrs by annexin V-FITC and propidium iodide based staining based flow cytometry analysis (reference value: 1.95 %). In kind it is functional.

Sequence of Phosphatidylinositol 4,5-bisphosphate 3-kinase catalytic subunit alpha isoform (P42336 whole entry, canonical isoform): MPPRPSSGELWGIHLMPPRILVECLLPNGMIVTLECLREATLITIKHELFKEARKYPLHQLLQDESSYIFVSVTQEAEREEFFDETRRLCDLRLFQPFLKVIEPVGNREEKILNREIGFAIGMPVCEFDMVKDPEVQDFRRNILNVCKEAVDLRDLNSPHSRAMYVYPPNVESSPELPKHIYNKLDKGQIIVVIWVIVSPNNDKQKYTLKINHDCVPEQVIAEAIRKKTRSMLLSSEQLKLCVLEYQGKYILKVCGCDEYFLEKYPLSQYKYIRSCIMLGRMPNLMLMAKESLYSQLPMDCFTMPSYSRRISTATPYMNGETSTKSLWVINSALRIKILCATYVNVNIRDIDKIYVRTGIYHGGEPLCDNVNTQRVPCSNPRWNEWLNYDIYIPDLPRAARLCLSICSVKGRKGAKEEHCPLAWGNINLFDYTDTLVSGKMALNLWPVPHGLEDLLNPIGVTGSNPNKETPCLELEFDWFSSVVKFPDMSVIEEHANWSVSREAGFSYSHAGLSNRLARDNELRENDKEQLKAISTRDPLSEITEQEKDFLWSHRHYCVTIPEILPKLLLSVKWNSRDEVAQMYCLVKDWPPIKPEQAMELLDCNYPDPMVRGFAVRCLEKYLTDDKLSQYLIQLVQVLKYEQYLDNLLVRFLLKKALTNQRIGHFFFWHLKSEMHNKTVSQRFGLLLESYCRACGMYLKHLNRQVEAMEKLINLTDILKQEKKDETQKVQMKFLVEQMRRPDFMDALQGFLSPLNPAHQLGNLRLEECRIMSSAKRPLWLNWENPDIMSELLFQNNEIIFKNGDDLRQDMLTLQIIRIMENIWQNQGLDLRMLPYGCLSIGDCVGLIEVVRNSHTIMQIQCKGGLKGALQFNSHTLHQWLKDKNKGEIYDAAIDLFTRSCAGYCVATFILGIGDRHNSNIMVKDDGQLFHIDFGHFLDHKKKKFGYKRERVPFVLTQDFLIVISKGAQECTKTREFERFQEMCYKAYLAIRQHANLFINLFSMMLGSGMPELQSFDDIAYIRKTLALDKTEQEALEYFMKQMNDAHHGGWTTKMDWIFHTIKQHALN

On to `COc1ncc(-c2nc3c(N4CCC(OC)CC4)ncnc3s2)cc1NS(=O)(=O)c1ccc(F)cc1F`, for which the IC50 in experiment [1] came out at 1.3 nM; in the experiment with HGC-27 [2], 74 nM.

Regarding `COc1ncc(-c2nc3c(N4CCOC[C@H]4C)ncnc3s2)cc1NS(=O)(=O)c1ccc(F)cc1F`, the IC50 was determined as 1.9 nM in experiment [1] and 47 nM in the experiment on HGC-27 [2].

`Nc1cc(C(F)(F)F)c(-c2cc(N3CCOCC3)nc(N3CCOCC3)n2)cn1` [BUPARLISIB]: in the experiment on HGC-27 [3], the viability at 0.5 µM stood at 74.9%. Also, the results for the Activity in the experiment on HGC-27 [4], in the experiment with HGC-27 [5] and in the experiment on HGC-27 [6] were 15.9%, 8.93% and 0.3%, respectively.

As for `COc1ncc(-c2cc3c(N4CCCC4)ncnc3s2)cc1NS(=O)(=O)c1ccc(F)cc1F`, the IC50 in experiment [1] amounted to 14 nM; in the experiment with HGC-27 [2], 2300 nM.

With `COc1ncc(-c2cc3c(N4C[C@@H](C)O[C@@H](C)C4)ncnc3s2)cc1NS(=O)(=O)c1ccc(F)cc1F`, the IC50 is 15 nM in experiment [1] and 560 nM in the experiment on HGC-27 [2].

Regarding `COc1ncc(-c2cc3c(N4CC(OC)C4)ncnc3s2)cc1NS(=O)(=O)c1ccc(F)cc1F`, the IC50 in experiment [1] came out at 7.2 nM; with HGC-27 [2], 830 nM.

Turning to `COc1ncc(-c2nc3c(N4CC(C)OC(C)C4)ncnc3s2)cc1NS(=O)(=O)c1ccc(F)cc1F` (stereo unspecified), the results for the IC50 (in experiment [1]; in the experiment with HGC-27 [2]) were 11 nM and 270 nM, respectively.

`COc1ncc(-c2cc3c(N4CCOC[C@H]4C)ncnc3s2)cc1NS(=O)(=O)c1ccc(F)cc1F`: the values for the 50% inhibitory concentration (IC50) (in experiment [1]; in the experiment with HGC-27 [2]) were 14 nM and 470 nM, respectively.

On to `COc1ncc(-c2cc3c(N4CCN(C)C(=O)C4)ncnc3s2)cc1NS(=O)(=O)c1ccc(F)cc1F`, for which the figures for the IC50 (in experiment [1]; with HGC-27 [2]) were 16 nM and 920 nM, respectively.

For `COc1ncc(-c2cc3c(N4CC5CCCC5C4)ncnc3s2)cc1NS(=O)(=O)c1ccc(F)cc1F` (stereo unspecified), the values for the IC50 (in experiment [1]; in the experiment on HGC-27 [2]) were 47 nM and 1900 nM, respectively.

In the case of `COc1ncc(-c2nc3c(N4CC5CCCC5C4)ncnc3s2)cc1NS(=O)(=O)c1ccc(F)cc1F` (stereo unspecified), the IC50 worked out at 6.3 nM in experiment [1] and 310 nM with HGC-27 [2].

With `COc1ncc(-c2nc3c(N4CCCC4)ncnc3s2)cc1NS(=O)(=O)c1ccc(F)cc1F`, the values for the half-maximal inhibitory concentration (IC50) (in experiment [1]; in the experiment with HGC-27 [2]) were 3.5 nM and 1200 nM, respectively.

As to `COc1ncc(-c2cc3c(N4CC5COCC5C4)ncnc3s2)cc1NS(=O)(=O)c1ccc(F)cc1F` (stereo unspecified), the concentration for half-maximal inhibition (IC50) was determined as 14 nM in experiment [1] and 300 nM in the experiment with HGC-27 [2].

On to `COc1ncc(-c2cc3c(N4CCSCC4)ncnc3s2)cc1NS(=O)(=O)c1ccc(F)cc1F`, for which the half-maximal inhibitory concentration (IC50) turned out to be 17 nM in experiment [1] and 810 nM in the experiment with HGC-27 [2].

With `COc1ncc(-c2nc3c(N4CCOC[C@@H]4C)ncnc3s2)cc1NS(=O)(=O)c1ccc(F)cc1F`, the IC50 worked out at 2 nM in experiment [1] and 170 nM in the experiment with HGC-27 [2].

`COc1ncc(-c2cc3c(-c4ccncc4)ncnc3s2)cc1NS(=O)(=O)c1ccc(F)cc1F`: the IC50 in experiment [1] amounted to 5.1 nM; with HGC-27 [2], 1700 nM.

As to `COc1ncc(-c2cc3c(N4CCOC[C@@H]4C)ncnc3s2)cc1NS(=O)(=O)c1ccc(F)cc1F`, the results for the IC50 (in experiment [1]; in the experiment with HGC-27 [2]) were 11 nM and 670 nM, respectively.

Regarding `COc1ncc(-c2cc3c(N4CCC(OC)CC4)ncnc3s2)cc1NS(=O)(=O)c1ccc(F)cc1F`, the figures for the half-inhibitory concentration (IC50) (in experiment [1]; in the experiment with HGC-27 [2]) were 4.8 nM and 280 nM, respectively.

As for `COc1ncc(-c2nc3c(N4CCCCC4)ncnc3s2)cc1NS(=O)(=O)c1ccc(F)cc1F`, the half-maximal inhibitory concentration (IC50) in experiment [1] turned out to be 8.8 nM; in the experiment with HGC-27 [2], 960 nM.

In the case of `COc1ncc(-c2cc3c(N4CCN(C)CC4)ncnc3s2)cc1NS(=O)(=O)c1ccc(F)cc1F`, the IC50 in experiment [1] came to 109 nM; with HGC-27 [2], 560 nM.

`COc1ncc(-c2cc3c(N4CC(C)OC(C)C4)ncnc3s2)cc1NS(=O)(=O)c1ccc(F)cc1F` (racemic): the IC50 in experiment [1] amounted to 16 nM; in the experiment on HGC-27 [2] it was 860 nM.

Consider `COc1ncc(-c2cc3c(N4CCCCC4)ncnc3s2)cc1NS(=O)(=O)c1ccc(F)cc1F`, for which the IC50 turned out to be 14 nM in experiment [1] and 1200 nM with HGC-27 [2].

A word on the IC50: it is the midpoint of a concentration-inhibition curve.
